In patent publication US20230250096A1, “SUBSTITUTED PHENYL-1H-PYRROLO[2,3-c] PYRIDINE DERIVATIVES” (Janssen Pharmaceutica NV, priority 2021, published 2023) one finds IC50 data, which are given here for 26 compounds.

This test has as its target T1, menin/MLL (terbium chelate-labeled menin, FITC-MBM1 peptide) (Homo sapiens, UniProt O00255, T541A).
T1 construct: Menin (a.a 1-610-6xhis tag, 2.3 mg/mL in 20 mM Hepes)
T1 sequence (O00255 with tags, fused parts or gaps T541A): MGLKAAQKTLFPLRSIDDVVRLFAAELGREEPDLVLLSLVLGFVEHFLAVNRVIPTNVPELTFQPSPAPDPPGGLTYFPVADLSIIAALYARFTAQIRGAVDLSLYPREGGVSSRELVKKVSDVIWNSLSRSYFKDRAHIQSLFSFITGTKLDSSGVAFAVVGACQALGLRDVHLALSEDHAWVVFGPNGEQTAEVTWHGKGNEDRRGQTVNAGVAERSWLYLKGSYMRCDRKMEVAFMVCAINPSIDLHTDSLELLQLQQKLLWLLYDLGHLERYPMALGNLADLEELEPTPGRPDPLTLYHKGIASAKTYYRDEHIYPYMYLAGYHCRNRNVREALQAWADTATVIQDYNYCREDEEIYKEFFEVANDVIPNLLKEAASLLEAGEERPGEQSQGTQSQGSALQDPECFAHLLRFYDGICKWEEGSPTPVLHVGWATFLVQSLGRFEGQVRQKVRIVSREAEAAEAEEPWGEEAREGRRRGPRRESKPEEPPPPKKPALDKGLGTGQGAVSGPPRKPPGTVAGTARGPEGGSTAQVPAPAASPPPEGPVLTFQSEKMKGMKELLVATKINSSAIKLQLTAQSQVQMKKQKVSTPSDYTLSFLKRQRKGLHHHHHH
Nature of the test: Menin/MLL homogenous time-resolved fluorescence (HTRF) assay. The settings on record: 30 min incubation. The test is classed as binding. Put shortly: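 Terbium-labeled menin (a.a. 1-610, His-tagged; […]) pre-incubated 30 min with compound, then 75 nM FITC-MBM1 peptide added for 15 min at ambient temperature in Tris pH 7.5 buffer, 0.5% DMSO. HTRF 520/490 nm ratio read; IC50 from 11-point four-fold titrations, typically from 10 μM.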
A general note: Time-resolved FRET reads energy transfer from a long-lived donor to a nearby acceptor.
On to `CCN(C(=O)c1cc(F)ccc1-n1cc(CC2CN(C(C(C)C)[C@H]3C[C@@H](N4C[C@H]5CN(C(C)=O)C[C@@H]5C4)C3)C2)c2c(C)cncc21)C(C)C` (mixture of isomers) [Compound 38a], for which the IC50 (usually the point on the concentration scale where inhibition reaches its midpoint) was 0.036 nM.

`Cc1cncc2c1c(C[C@H]1CCN(C(C)C3CCOCC3)C1)cn2-c1ccc(F)cc1C(=O)N(C)C(C)C` (mixture of isomers) [Compound 49] had an IC50 of 0.048 nM.

For the compound `CC(=O)N1CCN([C@H]2C[C@@H]([C@@H](C(C)C)N3CC(Cc4cn(-c5ccc(F)cc5C(=O)N(C)C(C)C)c5cncc(C)c45)C3)C2)CC1` (single isomer, unassigned) [Compound 32a], the concentration for half-maximal inhibition (IC50) worked out at 0.062 nM.

`CC(=O)N1C[C@@H]2CN([C@H]3C[C@@H]([C@@H](C(C)C)N4CC(Cc5cn(-c6ccc(F)cc6C(=O)N(C)C(C)C)c6cncc(Cl)c56)C4)C3)C[C@H]2C1` (single isomer, unassigned) [Compound 39a] returned an IC50 of 0.034 nM.

As for `Cc1cncc2c1c(C[C@@H]1CCN(CC3CCOCC3)C1)cn2-c1ccc(F)cc1C(=O)N(C)C(C)C` (single isomer, unassigned) [Compound 42], inhibition was half-maximal at 0.03 nM (IC50).

Turning to `Cc1cncc2c1c(C[C@H]1CCN(CC3CCOCC3)C1)cn2-c1ccc(F)cc1C(=O)N(C)C(C)C` (single isomer, unassigned) [Compound 43], the half-maximal inhibitory concentration (IC50) was 0.027 nM.

For `Cc1cncc2c1c(C[C@@H]1CCN(CC(C)C)C1)cn2-c1ccc(F)cc1C(=O)N(C)C(C)C` (single isomer, unassigned) [Compound 44], half-maximal inhibition (IC50) required 0.06 nM.

With `Cc1cncc2c1c(C[C@H]1CCN(CC(C)C)C1)cn2-c1ccc(F)cc1C(=O)N(C)C(C)C` (single isomer, unassigned) [Compound 45], the IC50 came out at 0.054 nM.

Consider `Cc1cncc2c1c(C[C@H]1CCN([C@@H](C)C3CCOCC3)C1)cn2-c1ccc(F)cc1C(=O)N(C)C(C)C` (single isomer, unassigned) [Compound 49b], for which the concentration for half-maximal inhibition (IC50) was 0.06 nM.

In the case of `CC(=O)N1CCC(CN2CC[C@@H](Cc3cn(-c4ccc(F)cc4C(=O)N(C)C(C)C)c4cncc(C)c34)C2)CC1` (single isomer, unassigned) [Compound 50], inhibition was half-maximal at 0.079 nM (IC50).

In turn, `COCC(=O)N1CCC(CN2CCC(Cc3cn(-c4ccc(F)cc4C(=O)N(C)C(C)C)c4cncc(C)c34)C2)CC1` (single isomer, unassigned) [Compound 59] had an IC50 of 0.054 nM.

With `Cc1cncc2c1c(CC1CCN(CC3CCN(C(=O)CC#N)CC3)C1)cn2-c1ccc(F)cc1C(=O)N(C)C(C)C` (single isomer, unassigned) [Compound 60], the IC50 was < 0.0095 nM.

Take `Cc1cncc2c1c(C[C@H]1CCN(C[C@H]3CC[C@H](NS(C)(=O)=O)CC3)C1)cn2-c1ccc(F)cc1C(=O)N(C)C(C)C` (single isomer, unassigned) [Compound 69]: half-maximal inhibition (IC50) required 0.049 nM.

In turn, `CNC(=O)[C@H]1CC[C@H](CN2CCC(Cc3cn(-c4ccc(F)cc4C(=O)N(C)C(C)C)c4cncc(C)c34)C2)CC1` (single isomer, unassigned) [Compound 70] registered an IC50 of 0.114 nM.

Consider `CNC(=O)[C@H]1CC[C@H](CN2CCC(Cc3cn(-c4ccc(F)cc4C(=O)N(C)C(C)C)c4cncc(C)c34)C2)CC1` (single isomer, unassigned) [Compound 71], for which inhibition was half-maximal at 0.202 nM (IC50).

On to `Cc1cncc2c1c(C[C@@H]1CCN(CC3CCOCC3)C1)cn2-c1ccc(F)cc1C(=O)N(C[C@H](C)O)C(C)C` (single isomer, unassigned) [Compound 365b], for which the IC50 amounted to 0.081 nM.

As for `COCCN(C)CCCC(C(C)C)N1CC[C@@H](Cc2cn(-c3ccc(F)cc3C(=O)N(C)C(C)C)c3cncc(C)c23)C1` (some centres unmarked) [Compound 1], the IC50 turned out to be 0.033 nM.

As for `Cc1cncc2c1c(CC1CN([C@@H](C(C)C)[C@H]3C[C@@H](N4CCC(S(C)(=O)=O)CC4)C3)C1)cn2-c1ccc(F)cc1C(=O)N(C)C(C)C` [Compound 33a], the IC50 is 0.07 nM.

`CCN(C(=O)c1cc(F)ccc1-n1cc(CC2CN(C(C(C)C)[C@H]3C[C@@H](N4CCN(S(C)(=O)=O)CC4)C3)C2)c2c(C)cncc21)C(C)C` (some centres unmarked) [Compound 37a] yielded an IC50 of 0.126 nM.

On to `CC(C)C([C@H]1C[C@@H](N(C)C)C1)N1CC(Cc2cn(-c3ccc(F)cc3C(=O)N(C)C(C)C)c3cncc(Cl)c23)C1` (some centres unmarked) [Compound 41], for which inhibition was half-maximal at 0.202 nM (IC50).

Regarding `CC(=O)N1CCC(CN2CCC(Cc3cn(-c4ccc(F)cc4C(=O)N(C)C(C)C)c4cncc(C)c34)CC2)CC1` [Compound 58], it took 0.135 nM to reach half-maximal inhibition (IC50).

Consider `Cc1cncc2c1c(CC1CN(CC3CCOCC3)C1)cn2-c1ccc(F)cc1C(=O)N(C)C(C)C` [Compound 61], for which inhibition was half-maximal at 0.132 nM (IC50).

In the case of `CC(=O)N1CCC(CN2CC(Cc3cn(-c4ccc(F)cc4C(=O)N(C)C(C)C)c4cncc(C)c34)C2)CC1` [Compound 63], the concentration for half-maximal inhibition (IC50) was 0.176 nM.

In turn, `COCC(=O)N1CCC(CN2CC(Cc3cn(-c4ccc(F)cc4C(=O)N(C)C(C)C)c4cncc(C)c34)C2)CC1` [Compound 66] came in with an IC50 of 0.037 nM.

`Cc1cncc2c1c(CC1CN(CC3CCN(C(=O)CC#N)CC3)C1)cn2-c1ccc(F)cc1C(=O)N(C)C(C)C` [Compound 67]: the IC50 is ~0.043 nM.

In the case of `Cc1cncc2c1c(C[C@@H]1CCN(CC3CCOCC3)C1)cn2-c1ccc(F)cc1C(=O)N(CCO)C(C)C` [Compound 357], the IC50 turned out to be 0.035 nM.
